We go through two molecules from US20220226322A1, “METHODS OF TREATING VIRALLY ASSOCIATED CANCERS WITH HISTONE DEACETYLASE INHIBITORS” (priority 2019, published 2022).

For data set [1] the following is noted: in vivo; cited from earlier work.
Data set [2] has as its target HDAC2 (Homo sapiens, UniProt Q92769). Type of data set: biochemical. The note with it: HDAC2, 10 μM HDAC Substrate 3. The protocol:
(§1) Briefly, all of the compounds are dissolved in DMSO. A series of dilutions of the compounds were prepared with 10% DMSO in HDAC assay buffer and 5 μl of the dilution was added to a 50 μl reaction so that the final concentration of DMSO is 1% in all of reactions. The compounds were pre-incubated in duplicate at RT for 1 hour in a mixture containing HDAC assay buffer, 5 μg BSA, HDAC enzyme (see Table 7) and a the particular HDACi. After 1 hour, the enzymatic reactions were initiated by the addition of HDAC substrate (BPS Bioscience) to a final concentration of 10 μM or 2 μM. The enzymatic reaction proceeded for 30 minutes at 37° C.
(§2) HDAC activity assays were performed in duplicates at each concentration. The fluorescent intensity data were analyzed using the computer software, Graphpad Prism. In the absence of the compound, the fluorescent intensity (Ft) in each data set was defined as 100% activity. In the absence of HDAC, the fluorescent intensity (Fb) in each data set was defined as 0% activity. The percent activity in the presence of each compound was calculated according to the following equation: % activity=(F−Fb)/(Ft−Fb), where F=the fluorescent intensity in the presence of the compound. […]

Data set [3] concerns the target T1, HDAC6 (Homo sapiens, UniProt Q9UBN7).
T1 sequence (Q9UBN7 1-1215): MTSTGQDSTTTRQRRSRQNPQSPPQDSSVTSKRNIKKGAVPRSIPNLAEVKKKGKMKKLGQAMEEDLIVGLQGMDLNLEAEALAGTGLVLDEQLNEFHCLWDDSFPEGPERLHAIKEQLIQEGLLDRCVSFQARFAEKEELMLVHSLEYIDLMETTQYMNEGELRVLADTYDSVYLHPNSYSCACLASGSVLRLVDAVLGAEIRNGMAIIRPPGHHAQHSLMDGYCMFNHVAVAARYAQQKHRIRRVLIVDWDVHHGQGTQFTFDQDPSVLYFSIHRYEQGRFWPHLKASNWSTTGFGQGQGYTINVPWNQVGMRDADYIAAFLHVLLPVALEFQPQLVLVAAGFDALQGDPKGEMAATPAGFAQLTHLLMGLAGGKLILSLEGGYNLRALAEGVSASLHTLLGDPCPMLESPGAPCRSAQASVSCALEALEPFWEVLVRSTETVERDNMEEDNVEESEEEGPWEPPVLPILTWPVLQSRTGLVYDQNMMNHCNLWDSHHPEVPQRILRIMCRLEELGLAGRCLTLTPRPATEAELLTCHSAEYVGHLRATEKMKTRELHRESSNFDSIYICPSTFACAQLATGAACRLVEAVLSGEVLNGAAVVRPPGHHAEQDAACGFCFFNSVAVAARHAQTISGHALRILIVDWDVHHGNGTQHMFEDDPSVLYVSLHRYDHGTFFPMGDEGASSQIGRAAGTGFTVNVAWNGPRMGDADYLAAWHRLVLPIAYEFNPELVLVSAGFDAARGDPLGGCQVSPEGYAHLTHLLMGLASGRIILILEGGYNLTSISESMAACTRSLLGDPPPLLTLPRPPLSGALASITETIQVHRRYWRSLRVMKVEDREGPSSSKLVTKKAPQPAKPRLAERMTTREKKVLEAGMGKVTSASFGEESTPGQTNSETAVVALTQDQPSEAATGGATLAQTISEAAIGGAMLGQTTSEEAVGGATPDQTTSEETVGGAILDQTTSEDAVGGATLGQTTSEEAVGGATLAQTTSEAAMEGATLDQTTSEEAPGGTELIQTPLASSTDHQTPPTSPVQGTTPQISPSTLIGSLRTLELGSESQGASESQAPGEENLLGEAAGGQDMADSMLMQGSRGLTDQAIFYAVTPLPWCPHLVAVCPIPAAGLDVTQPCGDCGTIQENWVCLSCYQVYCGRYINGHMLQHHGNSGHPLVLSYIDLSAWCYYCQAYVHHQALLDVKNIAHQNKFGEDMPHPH
The note with it: HDAC6, 10 μM HDAC Substrate 3. The protocol:
as §1, §2

Data set [4] is described as follows: Single dose pharmacokinetics of VRx-3996 in patients given oral nanatinostat and valganciclovir. Type of data set: in vivo, humans. The note with it: Treatment C = 10 mg VRx-3996 p.o. and 900 mg Valganciclovir p.o., N 4.
The test system of data set [5] is Histone 3 acetylation in peripheral blood mononuclear cells. The experiment in a line: H3 acetylation in peripheral blood mononuclear cells of healthy donors (flow cytometry). Type of data set: cell-based, human. From the text: Percentage of cells with H3 acetylation, as determined by flow cytometry, is shown.
Since H3 acetylation is a pharmacodynamic biomarker of Nstat activity, acetylation of H3 was examined in treated cells.
(In flow cytometry, cells or beads pass a laser one at a time.)

Data set [6] deals with HDAC3/NCOR2 (Homo sapiens, UniProt O15379). Briefly: HDAC activity assay (fluorescence). Type of data set: biochemical. The note with it: HDAC3/NCOR2, 10 μM HDAC Substrate 3. The protocol:
as §1, §2

The target in data set [7] is HDAC1 (Homo sapiens, UniProt Q13547). Briefly: HDAC activity assay (fluorescence). Type of data set: biochemical. The note with it: HDAC1, 10 μM HDAC Substrate 3. The protocol: as §1, §2
Sequence of HDAC1 (Q13547 whole entry): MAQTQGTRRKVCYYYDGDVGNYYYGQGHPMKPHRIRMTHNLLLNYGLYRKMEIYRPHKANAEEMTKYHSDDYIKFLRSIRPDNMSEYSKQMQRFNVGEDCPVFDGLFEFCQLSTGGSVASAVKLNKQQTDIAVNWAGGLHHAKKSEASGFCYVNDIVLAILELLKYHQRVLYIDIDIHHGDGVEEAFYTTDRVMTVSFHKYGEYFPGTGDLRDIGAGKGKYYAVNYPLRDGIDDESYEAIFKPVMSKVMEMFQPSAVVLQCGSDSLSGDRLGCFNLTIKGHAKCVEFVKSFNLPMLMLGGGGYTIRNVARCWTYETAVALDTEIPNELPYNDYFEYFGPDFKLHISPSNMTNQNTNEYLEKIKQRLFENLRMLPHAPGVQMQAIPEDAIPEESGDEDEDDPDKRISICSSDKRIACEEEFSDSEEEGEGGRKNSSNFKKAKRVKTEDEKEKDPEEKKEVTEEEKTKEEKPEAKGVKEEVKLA
In data set [8] the test system is P3HR1 Burkitt's lymphoma cells. The experiment in a line: Cell death by 7AAD staining after Nstat, washout, then ganciclovir. The protocol:
P3HR1 Burkitt's lymphoma cells were incubated with DMSO (solvent control) or Nstat for 3 days. After that time cell cultures were washed re-fed with ganciclovir (GCV) for an additional 3 days. All test conditions were run in triplicate. Cell death was measured by 7AAD staining.

Sequence of HDAC3/NCOR2 (O15379 whole entry): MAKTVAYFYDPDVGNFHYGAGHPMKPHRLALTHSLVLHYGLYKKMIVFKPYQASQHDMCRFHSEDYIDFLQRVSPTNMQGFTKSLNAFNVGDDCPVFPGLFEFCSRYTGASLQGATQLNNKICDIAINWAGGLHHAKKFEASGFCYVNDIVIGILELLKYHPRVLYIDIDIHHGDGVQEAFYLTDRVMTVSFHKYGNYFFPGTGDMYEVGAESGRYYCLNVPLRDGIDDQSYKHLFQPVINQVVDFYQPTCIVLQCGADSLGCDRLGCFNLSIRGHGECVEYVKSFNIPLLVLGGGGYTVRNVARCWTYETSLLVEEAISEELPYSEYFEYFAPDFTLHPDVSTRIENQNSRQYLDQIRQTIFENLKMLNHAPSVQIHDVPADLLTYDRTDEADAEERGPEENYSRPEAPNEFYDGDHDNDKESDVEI
Sequence of HDAC3/NCOR2 (Q9Y618 395-489 partner limits assumed): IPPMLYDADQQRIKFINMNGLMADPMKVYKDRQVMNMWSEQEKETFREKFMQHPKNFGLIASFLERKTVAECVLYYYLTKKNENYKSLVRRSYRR
Sequence of HDAC2 (Q92769 whole entry): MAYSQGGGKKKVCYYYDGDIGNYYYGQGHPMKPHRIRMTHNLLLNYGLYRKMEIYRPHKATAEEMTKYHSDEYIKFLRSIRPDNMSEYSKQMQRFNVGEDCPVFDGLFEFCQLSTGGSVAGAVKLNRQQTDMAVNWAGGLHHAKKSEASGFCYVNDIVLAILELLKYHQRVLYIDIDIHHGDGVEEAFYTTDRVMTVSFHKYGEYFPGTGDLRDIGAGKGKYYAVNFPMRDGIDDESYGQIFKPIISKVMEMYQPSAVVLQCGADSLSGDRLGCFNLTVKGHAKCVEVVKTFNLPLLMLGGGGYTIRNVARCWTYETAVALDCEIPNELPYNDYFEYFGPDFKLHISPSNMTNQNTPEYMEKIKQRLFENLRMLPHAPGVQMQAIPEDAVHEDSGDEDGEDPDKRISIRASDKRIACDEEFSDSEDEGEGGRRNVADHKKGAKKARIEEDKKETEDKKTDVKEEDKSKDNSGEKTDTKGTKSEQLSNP

`Nc1ccccc1NC(=O)c1ccc(CNC(=O)OCc2cccnc2)cc1` [MS-275, entinostat]: the elimination half-life entry in data set [1] is listed as “approximately 36 hours”.

In the case of `O=C(NO)c1cnc(N2C[C@@H]3[C@H](C2)[C@H]3NCc2ccc3cc(F)ccc3n2)nc1` [Nstat, 2-((1R,5S,6s)-6-(((6-fluoroquinolin-2-yl)methyl)amino)-3-azabicyclo[3.1.0]hexan-3-yl)-N-hydroxypyrimidine-5-carboxamide], the IC50 (usually the concentration needed to halve the response being measured) is 12 nM in data set [2], 450 nM in data set [3], 12 nM in data set [6] and 3.6 nM in data set [7]. In addition, the “AUC, geometric mean” value in data set [4] worked out at 322 ng·h/mL. For the same molecule, the “duration of effect on H3 acetylation” value in data set [5] (PBMC from healthy donors, doses down to 10 nM, FIG. 3) was “long-lasting”. The “potency in inducing elevated levels of Histone 3 acetylation” value in data set [5] (PBMC of healthy volunteers, even at a dose of 100 nM, FIG. 2) is listed as “much more potent than entinostat”. Further, the “increase of cytotoxic activity when combined with Ganciclovir” value in data set [8] was ~40%. Also, the “cell cytotoxicity when combined with ganciclovir” value in data set [8] (EBV infected cell line P3HR1, effect seen even after Nstat removal) is reported as “increases cell cytotoxicity”.
